Entries after “also recorded” stand apart in the source; their conditions may differ.
What was measured:
C57BL/6 mice [1] = test: Lung RNA microarray analysis (SAM dysregulated genes) with RT-PCR and BAL ELISA validation; type: in vivo, mouse
C57BL/6 mice [2] = test: as above; type: in vivo, mouse; remark: listed apart in the source
Experimental: Total lung RNA was isolated as described previously (Nonas et al., 2007). Affymetrix Mouse430_2 arrays (Affymetrix Inc., Santa Clara, Calif.) were utilized. Chip quality (Li and Wong, 2001) and ‘present’ or ‘absent’ expression calls were determined by GeneChip® Operating Software (GCOS) (GSE9368-rhPBEF, GSE9314-PBEF^+/−). Intensities and normalization of probe sets were calculated by Bioconductor software (GCRMA package) (Team RDC, 2005). To identify differentially-expressed genes, pairwise comparisons were conducted using Significance Analysis of Microarrays (SAM) as previously described (Nonas et al., 2007). Gene filtering parameters and results are summarized in Supplementary Table E2. Differentially-expressed genes displaying>2 fold changes are referred to as “dysregulated genes”.
Dysregulated gene functional profiles were analyzed using Onto-Express with the number of genes in each GO biological process category (Wu et al., 2004) compared with all genes on the […] chip to determine the significance of the GO category (Consortium, 2006). Ingenuity Pathway Analysis (IPA) software (containing individually modeled relationships between gene objects e.g. genes, mRNAs, proteins) was utilized to dynamically generate significant regulatory and signaling networks or pathways. The significance of a canonical pathway is controlled by the p-value calculated using the right-tailed Fisher Exact Test for 2×2 contingency tables. (See Supplemental Methods).
Lung total RNA was isolated from whole rodent lung tissue for microarray experiment as we have described previously (9) using the Affymetrix GeneChip platform and Expression Analysis Manual protocols (Affymetrix Inc., Santa Clara, Calif.). The signal intensity fluorescent images produced during Affymetrix GeneChip Mouse430_2 Array hybridizations were scanned using the Hewlett-Packard GeneArray Scanner G2500A. The ‘Present’ or ‘Absent’ calls of the probe sets in the expression chips were determined by GCOS (GeneChip® Operating Software) software. The microarray data have been submitted to the National Center for Biotechnology Information (NCBI)'s Gene Expression Omnibus repository (GSE9368 for rhPBEF study and GSE9314 for PBEF^+/− study). Chip quality (RNA degradation, cDNA synthesis, hybridization, chip washing, scanning) was evaluated with GCOS, dChip (Li and Wong, 2001) and Bioconductor ‘affy’ packages. All RNA samples and chips adopted in current study passed the quality criteria (data not shown). The intensities of probe sets were calculated by the GC Robust Multichip Average (GCRMA) package of Bioconductor software for normalization (Team RDC, 2005). To identify differentially-expressed genes, pairwise comparisons were conducted using Significance Analysis of Microarrays (SAM) (see the SAM online manual for detailed explanations of the blocking approach, www-stat.stanford.edu/˜tibs/SAM) as we have previously described (Nonas et al., 2007). Only probe sets present (determined by Affy ‘P’-call) in three replicates of at least one group with mean intensity above 100 were used for further data mining. The gene filtering parameters and results were summarized in Supplementary Table E2. […] For probe sets representing the same Entrez Gene or UniGene ID, only the probe set with lowest FDR or highest fold changes was included in the gene list.
Dysregulated genes were uploaded into the IPA software (http://www.ingenuity.com), a web-delivered application which utilizes the Ingenuity Pathways Knowledge Base (IPKB) containing a robust number of individually modeled relationships between gene objects (e.g. genes, mRNAs, proteins), in order to dynamically generate significant regulatory and signaling networks or pathways. […]

[3] = test system: rat peritoneal neutrophils; test: Transmigration and chemotaxis assay (Transwell); type: cell-based; settings: rhPBEF (10 ng/ul) or casein in lower chamber, up to 4 hours
Experimental: Chemotaxis of rat peritoneal neutrophils (calcein-AM) across 3 μm polycarbonate filters was assessed in response to recombinant human PBEF/visfatin (rhPBEF, PeproTech, Rocky Hill, N.J.), or casein (positive control). (See Supplemental Methods for additional details).
Neutrophils were collected from retired breeder male Harlan-Sprague Dawley rats by intraperitoneal injection of 2.5% casein (5 ml). The resulting peritoneal fluid was recovered by PBS peritoneal lavage after 18 hr, centrifuged and examined for total cell counts and cell differentiation. For chemotaxis assays, leukocytes were exposed to calcein-AM in the presence of plurionic acid for 1 hr at room temperature. The temperature was then elevated to 37° C. for 30 min to cleave the calcein AM thereby reducing the rate of calcein diffusion out of the cells. […] The receiving wells were assessed serially in a fluorescent plate reader with absorption at 494 nm and emission measured at 517 nm. Fluorescence was recorded at 5, 10, 15, 30 min and each subsequent 30 min period for up to 4 hr. Aliquots of known numbers of neutrophils were counted in separate wells at each time point to account for any quenching of the fluorescence over time.

[4] = VILIa-rhPBEF vs. Control, SAM, fold change 2
[5] = VILIa-rhPBEF vs. VILIa, SAM, fold change 2
[6] = rhPBEF vs. Control, SAM, fold change 2

With “rhPBEF: Recombinant human soluble PBEF/visfatin, a 52 kDa protein containing 465 amino acid residues, purchased from PeproTech” the Significant probe sets (C57BL/6 mice [1]; [4]) was 836, the “Unique Down” value (C57BL/6 mice [1]; [4]) was 258 and the “Unique Up” value (C57BL/6 mice [1]; [4]) was 432. The “Unique gene (dysregulated genes)” value (C57BL/6 mice [1]; [4]) was 690, the Significant probe sets (C57BL/6 mice [1]; [5]) was 82 and the “Unique Down” value (C57BL/6 mice [1]; [5]) was 0. For the same substance, the “Unique Up” value (C57BL/6 mice [1]; [5]) was 65, the “Unique gene (differentially expressed genes)” value (C57BL/6 mice [1]; [5]) was 65 and the “BCL3 DNA microarray, average fold change increase over control” value (C57BL/6 mice [1]; rhPBEF) was 7 fold change. The “BCL3 RNA (RT-PCR), average fold change increase over control” value (C57BL/6 mice [1]; rhPBEF) was 4 fold change, the “CxCL1 (KC) Protein (BAL levels by ELISA), average fold change increase over control” value (C57BL/6 mice [1]; rhPBEF) was 43 fold change and the “CxCL1 (KC) RNA (RT-PCR), average fold change increase over control” value (C57BL/6 mice [1]; rhPBEF) was 146 fold change. For the same substance, the “CxCL2 (MIP2α) DNA microarray, average fold change increase over control” value (C57BL/6 mice [1]; rhPBEF) was 2290 fold change, the “CxCL2 (MIP2α) Protein (BAL levels by ELISA), average fold change increase over control” value (C57BL/6 mice [1]; rhPBEF) was 115 fold change and the “CxCL2 (MIP2α) RNA (RT-PCR), average fold change increase over control” value (C57BL/6 mice [1]; rhPBEF) was 613 fold change. The “IL-1-β DNA microarray, average fold change increase over control” value (C57BL/6 mice [1]; rhPBEF) was 70 fold change, the “IL-1-β Protein (BAL levels by ELISA), average fold change increase over control” value (C57BL/6 mice [1]; rhPBEF) was 3 fold change and the “IL-6 DNA microarray, average fold change increase over control” value (C57BL/6 mice [1]; rhPBEF) was 240 fold change. The “IL-6 Protein (BAL levels by ELISA), average fold change increase over control” value (C57BL/6 mice [1]; rhPBEF) was 9 fold change, the “MMP9 DNA microarray, average fold change increase over control” value (C57BL/6 mice [1]; rhPBEF) was 16 fold change and the “MMP9 RNA (RT-PCR), average fold change increase over control” value (C57BL/6 mice [1]; rhPBEF) was 16 fold change. The “Map3k8 RNA (RT-PCR), average fold change increase over control” value (C57BL/6 mice [1]; rhPBEF) was 1 fold change, the “TNF-α Protein (BAL levels by ELISA), average fold change increase over control” value (C57BL/6 mice [1]; rhPBEF) was 43 fold change and the “BCL3 RNA (RT-PCR), average fold change increase over control” value (C57BL/6 mice [1]; rhPBEF VILIa) was 10 fold change. The “CxCL1 (KC) Protein (BAL levels by ELISA), average fold change increase over control” value (C57BL/6 mice [1]; rhPBEF VILIa) was 45 fold change, the “CxCL1 (KC) RNA (RT-PCR), average fold change increase over control” value (C57BL/6 mice [1]; rhPBEF VILIa) was 148 fold change and the “CxCL2 (MIP2α) Protein (BAL levels by ELISA), average fold change increase over control” value (C57BL/6 mice [1]; rhPBEF VILIa) was 196 fold change. For the same substance, the “CxCL2 (MIP2α) RNA (RT-PCR), average fold change increase over control” value (C57BL/6 mice [1]; rhPBEF VILIa) was 1479 fold change, the “IL-1-β DNA microarray, average fold change increase over control” value (C57BL/6 mice [1]; rhPBEF VILIa) was 87 fold change and the “IL-1-β Protein (BAL levels by ELISA), average fold change increase over control” value (C57BL/6 mice [1]; rhPBEF VILIa) was 3 fold change. For the same substance, the “IL-6 DNA microarray, average fold change increase over control” value (C57BL/6 mice [1]; rhPBEF VILIa) was 900 fold change, the “IL-6 Protein (BAL levels by ELISA), average fold change increase over control” value (C57BL/6 mice [1]; rhPBEF VILIa) was 27 fold change and the “MMP9 RNA (RT-PCR), average fold change increase over control” value (C57BL/6 mice [1]; rhPBEF VILIa) was 1 fold change. The “Map3k8 DNA microarray, average fold change increase over control” value (C57BL/6 mice [1]; rhPBEF VILIa) was 4 fold change, the “Map3k8 RNA (RT-PCR), average fold change increase over control” value (C57BL/6 mice [1]; rhPBEF VILIa) was 2 fold change and the “TNF-α DNA microarray, average fold change increase over control” value (C57BL/6 mice [1]; rhPBEF VILIa) was 23 fold change. The “TNF-α Protein (BAL levels by ELISA), average fold change increase over control” value (C57BL/6 mice [1]; rhPBEF VILIa) was 45 fold change, the Significant probe sets (C57BL/6 mice [1]; [6]) was 613 and the “Unique Up” value (C57BL/6 mice [1]; [6]) was 375. For the same substance, the “Unique gene (dysregulated genes)” value (C57BL/6 mice [1]; [6]) was 493, the “dysregulated genes in the NFκB pathway” value (C57BL/6 mice [2]; VILIa-rhPBEF combined exposure, Ingenuity Pathway Analysis) was 21 and the “CxCL1 (KC) DNA microarray, average fold change increase over control” value (C57BL/6 mice [2]; rhPBEF) was 510 fold change. The “Map3k8 DNA microarray, average fold change increase over control” value (C57BL/6 mice [2]; rhPBEF) was 3 fold change, the “TNF-α DNA microarray, average fold change increase over control” value (C57BL/6 mice [2]; rhPBEF) was 23 fold change and the “BCL3 DNA microarray, average fold change increase over control” value (C57BL/6 mice [2]; rhPBEF VILIa) was 11 fold change. For the same substance, the “CxCL1 (KC) DNA microarray, average fold change increase over control” value (C57BL/6 mice [2]; rhPBEF VILIa) was 589 fold change, the “CxCL2 (MIP2α) DNA microarray, average fold change increase over control” value (C57BL/6 mice [2]; rhPBEF VILIa) was 2128 fold change and the “MMP9 DNA microarray, average fold change increase over control” value (C57BL/6 mice [2]; rhPBEF VILIa) was 13 fold change. The “Unique Down” value (C57BL/6 mice [2]; [6]) was 118 and the “PMN migration across Transwell filters” value [3] was “significant PMN migration beginning after 2 hrs; also recorded: significant PMN migration beginning at 2 hrs”.

Reference: patent US9409983B2, “Methods and compositions involving PBEF inhibitors for lung inflammation conditions and diseases” (The Board of Trustess of the University of Illinois, priority 2009, dated 2016)
